Target: T1, human TRPM8 channel (Homo sapiens, UniProt Q7Z2W7)
T1 construct: The open reading frame of human cDNA TRPM8 from position 41-3355bp was amplified; expressed in transfected cells
Experiment: Intracellular calcium (fluo-4 fluorescence) assay in HEK 293 cells stably expressing human TRPM8
Type: cell-based
Settings: fluo-4 calcium fluorescence, concentration producing one-half of maximal response (DFmax)
Text: Humans can detect changes in temperature from noxious cold (<8 C) to noxious heat (>52 C) due to activation of sensory nerve fibers. “The principal temperature sensors in the sensory nerve fibers are members of a family of transient receptor potential (TRP) cation channels” (Voets et al., 2004). In humans the sensation of cooling is elicited by activation of channel TRPM8, which is activated at temperatures below 28 C (Voets et al., 2004). Furthermore human TRPM8 is activated by compounds such as menthol (Brauchi et al., Proc. Natl. Acad. Sci. USA, 2004, Oct. 26; 101 (43):15494-9; Voets et al., Nature, 2004, 430 (7001): 748-54). […]
The open reading frame of human cDNA TRPM8 from position 41-3355bp was amplified from a human prostate cDNA library (Stratagene) using primers […] and […] as previously described previously (Tsavalier et al., 2001). […]
Cells stably expressing the human TRPM8 were seeded in a 96 well plate (coated with polylysine) at a density of 10^5 cells /well in 200 μl of media. […] The dye was then removed and the cells were incubated in a Tyrodes buffer (containing 1 mM probenicide, pH 7.4) pre-equilibrated at a certain temperature (i.e 37° C.) and the intracellular calcium levels were monitored at the same temperature, using the Novostar plate reader. The cells in each well were illuminated at 480 nm, and the fluorescent light emitted at 510 nm was measured. […]

T1 sequence (Q7Z2W7 whole entry): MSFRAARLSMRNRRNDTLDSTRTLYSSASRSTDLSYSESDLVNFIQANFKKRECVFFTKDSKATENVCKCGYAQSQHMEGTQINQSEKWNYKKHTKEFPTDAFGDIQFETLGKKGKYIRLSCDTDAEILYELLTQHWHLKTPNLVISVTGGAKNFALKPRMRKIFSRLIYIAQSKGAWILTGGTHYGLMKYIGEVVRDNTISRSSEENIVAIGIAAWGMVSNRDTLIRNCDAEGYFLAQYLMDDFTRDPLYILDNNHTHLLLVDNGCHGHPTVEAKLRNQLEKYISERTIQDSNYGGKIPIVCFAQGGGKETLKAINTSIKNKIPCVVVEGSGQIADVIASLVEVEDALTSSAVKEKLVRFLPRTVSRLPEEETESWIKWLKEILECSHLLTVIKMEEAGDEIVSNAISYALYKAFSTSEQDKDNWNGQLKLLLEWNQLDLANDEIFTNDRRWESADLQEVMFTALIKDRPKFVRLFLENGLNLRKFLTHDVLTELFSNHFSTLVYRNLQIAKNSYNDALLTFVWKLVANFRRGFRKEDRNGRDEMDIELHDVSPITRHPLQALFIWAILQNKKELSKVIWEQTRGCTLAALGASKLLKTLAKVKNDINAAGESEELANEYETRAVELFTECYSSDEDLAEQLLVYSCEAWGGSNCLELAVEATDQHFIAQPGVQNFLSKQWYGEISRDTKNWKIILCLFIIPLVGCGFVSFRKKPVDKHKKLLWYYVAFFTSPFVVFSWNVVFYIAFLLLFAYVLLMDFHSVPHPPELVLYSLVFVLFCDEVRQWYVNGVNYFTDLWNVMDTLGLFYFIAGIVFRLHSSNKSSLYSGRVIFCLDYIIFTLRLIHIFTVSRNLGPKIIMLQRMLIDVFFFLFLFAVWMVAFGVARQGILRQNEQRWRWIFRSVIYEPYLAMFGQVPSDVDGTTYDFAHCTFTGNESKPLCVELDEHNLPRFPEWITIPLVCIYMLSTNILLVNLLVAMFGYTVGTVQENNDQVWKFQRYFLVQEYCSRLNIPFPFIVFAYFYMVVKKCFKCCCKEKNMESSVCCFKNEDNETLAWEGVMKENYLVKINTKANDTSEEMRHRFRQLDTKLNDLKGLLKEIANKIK

For `CCCn1cnc2sc3c(c2c1=N)CCCC3` [Example 1, 3-propyl-5,6,7,8-tetrahydro-3H-benzo[4,5]-thieno[2,3-d]pyrimidin-4-ylidene amine], the EC50 was 6.5 µM.
